Measured values taken from patent US8614215B2, “Quinoxaline inhibitors of phosphoinositide-3-kinases (PI3Ks)” (Merck Serono SA, priority 2007, dated 2013).
pIC50: −log10 of the molar value.

The molecules below were run on Human recombinant GST-PI3K (assay: PI3K induced-lipid phosphorylation, neomycin-SPA scintillation proximity assay). Details: Human recombinant GST-PI3K, SPA.
Type: biochemical
From the text: The efficacy of compounds of the invention in inhibiting the PI3K induced-lipid phosphorylation may be tested in the following binding assay. The assay combines the scintillation proximity assay technology (SPA, Amersham) with the capacity of neomycin (a polycationic antibiotic) to bind phospholipids with high affinity and specificity. The Scintillation Proximity Assay is based on the properties of weakly emitting isotopes (such as ^3H, ^125I, ^33P). Coating SPA beads with neomycin allows the detection of phosphorylated lipid substrates after incubation with recombinant PI3K and radioactive ATP in the same well, by capturing the radioactive phospholipids to the SPA beads through their specific binding to neomycin.
To a 96 wells MTP containing 10 μL of the test compound of Formula (I) (solubilized in 10% DMSO; […]), the following assay components are added: 1) 10 μL of lipid micelles 2) 20 μL of Kinase buffer ([^33P]γATP162 μM/300 nCi, MgCl2 2.5 mM, DTT 2.5 mM, Na3VO4 25 uM in Hepes 40 mM, pH 7.4) and 3) 10 μL (100 ng) of Human recombinant GST-PI3K (in Hepes 40 mM, pH 7.4, ethylenglycol 4%). After incubation at room temperature for 120 minutes, with gentle agitation, the reaction is stopped by addition of 200 μL of a solution containing 250 μg of neomycin-coated PVT SPA beads, ATP 60 mM and EDTA 6.2 mM in PBS. The assay is further incubated at room temperature for 60 minutes with gentle agitation to allow binding of phospholipids to neomycin-SPA beads. After precipitation of the neomycin-coated PVT SPA beads for 5 minutes at 1500×g, radioactive PtdIns(3)P is quantified by scintillation counting in a Wallac MicroBeta™ plate counter.
The values indicated in Table I below refer to the IC50 (μM) with respect to PI3K, i.e. the amount necessary to achieve 50% inhibition of said target. Said values show a considerable inhibitory potency of quinoxaline compounds with regard to PI3K.

In order of rising pIC50:
1. COc1ccc(C(=O)O)c(Nc2nc3ccccc3nc2NS(=O)(=O)c2cccnc2)c1 [Example 98, 4-methoxy-2-({3-[(pyridin-3-ylsulfonyl)amino]quinoxalin-2-yl}amino)benzoic acid]  5.33
2. COc1cc(Nc2nc3ccccc3nc2NS(=O)(=O)c2cn(C)cn2)cc(C(=O)N(C)C)c1 [Example 75, 3-Methoxy-N,N-dimethyl-5-[(3-{[(1-methyl-1H-imidazol-4-yl)sulfonyl]amino}quinoxalin-2-yl)amino]benzamide]  6.12
3. COc1ccc(C(CO)CO)c(Nc2nc3ccccc3nc2NS(=O)(=O)c2cn(C)cn2)c1 [Example 29, N-[3-({2-[2-Hydroxy-1-(hydroxymethyl)ethyl]-5-methoxyphenyl}amino)quinoxalin-2-yl]-1-methyl-1H-imidazole-4-sulfonamide]  6.26
4. COc1ccc(CC2CCCCC2)c(Nc2nc3ccccc3nc2NS(=O)(=O)c2cccnc2)c1 [Example 19, N-(3-{[2-(cyclohexylmethyl)-5-methoxyphenyl]amino}quinoxalin-2-yl)pyridine-3-sulfonamide]  6.31
5. COc1ccc(CO)c(Nc2nc3ccccc3nc2NS(=O)(=O)c2cn(C)cn2)c1 [Example 91, N-(3-{[2-(hydroxymethyl)-5-methoxyphenyl]amino}quinoxalin-2-yl)-1-methyl-1H-imidazole-4-sulfonamide]  6.33
6. COc1ccc(CCS(C)(=O)=O)c(Nc2nc3ccccc3nc2NS(=O)(=O)c2c(C)noc2C)c1 [Example 54, N-[3-({5-Methoxy-2-[2-(methylsulfonyl)ethyl]phenyl}amino)quinoxalin-2-yl]-3,5-dimethylisoxazole-4-sulfonamide]  6.72
7. COc1ccc(CC2CCN(S(C)(=O)=O)CC2)c(Nc2nc3ccccc3nc2NS(=O)(=O)c2cn(C)cn2)c1 [Example 97, N-{3-[(5-methoxy-2-{[1-(methylsulfonyl)piperidin-4-yl]methyl}phenyl)amino]quinoxalin-2-yl}-1-methyl-1H-imidazole-4-sulfonamide]  6.80
8. COc1ccc(CCS(C)(=O)=O)c(Nc2nc3ccccc3nc2NS(=O)(=O)CCCSC)c1 [Example 57, N-[3-({5-Methoxy-2-[2-(methylsulfonyl)ethyl]phenyl}amino)quinoxalin-2-yl]-3-(methylthio)propane-1-sulfonamide]  6.85
9. COc1ccc(CCCO)c(Nc2nc3ccccc3nc2NS(=O)(=O)c2c(C)noc2C)c1 [Example 42, N-(3-{[2-(3-Hydroxpropyl)-5-methoxyphenyl]amino}quinoxalin-2-yl)-3,5-dimethylisoxazole-4-sulfonamide]  6.89
10. COc1ccc(CC2CCSCC2)c(Nc2nc3ccccc3nc2NS(=O)(=O)c2cn(C)cn2)c1 [Example 25, N-(3-{[5-methoxy-2-(tetrahydro-2H-thiopyran-4-ylmethyl)phenyl]amino}quinoxalin-2-yl)-1-methyl-1H-imidazole-4-sulfonamide]  7.00
11. COc1ccc(CCOC(=O)[C@@H](N)C(C)C)c(Nc2nc3ccccc3nc2NS(=O)(=O)c2cn(C)cn2)c1 [Example 104]  7.00
12. COc1ccc(CCO)c(Nc2nc3ccccc3nc2NS(=O)(=O)C2CCS(=O)(=O)C2)c1 (stereo not drawn) [Example 56]  7.07
13. COCCc1ccc(OC)cc1Nc1nc2ccccc2nc1NS(=O)(=O)c1cn(C)cn1 [Example 62, N-(3-{[5-Methoxy-2-(2-methoxyethyl)phenyl]amino}quinoxalin-2-yl)-1-methyl-1H-imidazole-4-sulfonamide]  7.08
14. COc1ccc(CCCO)c(Nc2nc3ccccc3nc2NS(=O)(=O)C(C)C)c1 [Example 50, N-(3-{[2-(3-Hydroxyproxyl)-5-methoxypheyl]amino}quinoxalin-2-yl)propane-2-sulfonamide]  7.14
15. COc1ccc(CN2CCOCC2)c(Nc2nc3ccccc3nc2NS(=O)(=O)c2cccnc2)c1 [Example 83, N-(3-{[5-methoxy-2-(morpholin-4-ylmethyl)phenyl]amino}quinoxalin-2-yl)pyridine-3-sulfonamide]  7.14
16. COC(=O)CCc1ccc(S(=O)(=O)Nc2nc3ccccc3nc2Nc2cc(OC)ccc2CCO)cc1 [Example 41, Methyl 3-(4-{[(3-{[2-(2-hydroxyethyl)-5-methoxyphenyl]amino}quinoxalin-2-yl)amino]sulfonyl}phenyl)propanoate]  7.15
17. CCS(=O)(=O)Nc1nc2ccccc2nc1Nc1cc(OC)ccc1CCCO [Example 48, N-(3-{[2-(3-Hydroxypropyl)-5-methoxyphenyl]amino}quinoxalin-2-yl)ethanesulfonamide]  7.23
18. COc1ccc(CCO)c(Nc2nc3ccccc3nc2NS(=O)(=O)c2cn(C)cn2)c1 [Example 35, N-(3-{[2-(2-Hydroxyethyl)-5-methoxyphenyl]amino}quinoxalin-2-yl)-1-methyl-1H-imidazole-4-sulfonamide]  7.32
19. COc1ccc(CC2CCN(C)CC2)c(Nc2nc3ccccc3nc2NS(=O)(=O)c2cccnc2)c1 [Example 12, N-[3-({5-methoxy-2-[(1-methylpiperidin-4-yl)methyl]phenyl}amino)quinoxalin-2-yl]pyridine-3-sulfonamide]  7.35
20. CCCS(=O)(=O)Nc1nc2ccccc2nc1Nc1cc(OC)ccc1CCO [Example 39, N-(3-{[2-(2-Hydroxyethyl)-5-methoxyphenyl]amino}quinoxalin-2-yl)propane-1-sulfonamide]  7.36
21. COc1ccc(CCS(C)(=O)=O)c(Nc2nc3ccccc3nc2NS(=O)(=O)c2ccccc2)c1 [Example 55, N-[3-({5-Methoxy-2-[2-(methylsulfonyl)ethyl]phenyl}amino)quinoxalin-2-yl]benzenesulfonamide]  7.38
22. COc1ccc(CCO)c(Nc2nc3ccccc3nc2NS(=O)(=O)c2ccc(OCCO)cc2)c1 [Example 94]  7.47
23. COc1ccc(CCCO)c(Nc2nc3ccccc3nc2NS(=O)(=O)c2cccc(NC(=O)CN(C)C)c2)c1 [Example 78, 2-Dimethylamino-N-(3-{[(3-{[2-(3-hydroxypropyl)-5-methoxyphenyl]amino}quinoxalin-2-yl)]sulfamoyl}phenyl)-acetamide]  7.52
24. COc1ccc(CCO)c(Nc2nc3ccccc3nc2NS(=O)(=O)c2ccc(CN(C)C)cc2)c1 [Example 89, 4-[(Dimethylamino)methyl]-N-(3-{[2-(2-hydroxyethyl)-5-methoxyphenyl]amino}quinoxalin-2-yl)benzenesulfonamide]  7.59
25. COc1ccc(CCCO)c(Nc2nc3ccccc3nc2NS(=O)(=O)C2CCNCC2)c1 [Example 99, N-(3-{[2-(3-Hydroxypropyl)-5-methoxyphenyl]amino}quinoxalin-2-yl)piperidine-4-sulfonamide]  7.59
26. COc1ccc(CCO)c(Nc2nc3ccccc3nc2NS(=O)(=O)c2ccc(F)cc2)c1 [Example 36, 4-Fluoro-N-(3-{[2-(2-hydroxyethyl)-5-methoxyphenyl]amino}quinoxalin-2-yl)benzenesulfonamide]  7.64
27. COc1ccc(CCCN(C)C)c(Nc2nc3ccccc3nc2NS(=O)(=O)c2cn(C)cn2)c1 [Example 31, N-[3-({2-[3-(Dimethylamino)propyl]-5-methoxyphenyl}amino)quinoxalin-2-yl]-1-methyl-1H-imidazole-4-sulfonamide]  7.96
